Reference: patent US5376643A, “Composition for application to hair” (priority 1986, dated 1994)
Where two headings read alike, the source gives them in different places.

How the values were obtained:
grayed hair [1] = assay: Half-Head technique: preventing graying of the hair and restoring grayed hair to its natural color (Example 1 procedure); format: in vivo, human (men and women); details: for Comp. Sample is better / Comp. Sample is somewhat better / Same / This Invention is better / This Invention is somewhat better: 3 months; for effect on graying, compared with Example 12 / effect of preventing graying and restoring grayed hair, compared with Example 2 / amount of grayed hair / effect of preventing graying of the hair and restoring grayed hair to its natural color / effect of preventing graying and restoring grayed hair: in words; for effect on graying, compared with Example 12: hair tonics, used in place of FAD-2Na; for effect of preventing graying and restoring grayed hair, compared with Example 2: hair cream, used instead of N^6,O^2'-DScAMP-Na; for amount of grayed hair / effect of preventing graying of the hair and restoring grayed hair to its natural color: compared with comparative sample free from the component; for effect of preventing graying and restoring grayed hair: hair tonic
Text: The effectiveness of the hair tonics thus prepared were estimated in the following manner: Twenty statistically equivalent persons (comprising men and women aged 30 to 60 years) were selected and Samples of the hair tonics were applied to their scalps in accordance with the Half-Head technique, in which Samples were separately applied to the right and left half portions of the scalp, twice a day (in the morning and at night) for three months. The effects of preventing graying of the hair and restoring grayed hair to its natural color were estimated by comparing the conditions of the portions observed before and after the application of Samples.

[2] = Safety examination (overall, in words); details: same procedures as in Example 1
[3] = in words; cited from earlier work
[4] = in words; cited from earlier work; remark: listed apart in the source
grayed hair [5] = assay: Half-Head technique, two groups of 20 persons: preventing graying of the hair and restoring grayed hair (Example 6 procedure); format: in vivo, human (men and women); details: in words; hair creams
Text: Two groups each of which comprised 20 persons (50 to 60 years old; comprising men and women) were selected and the hair tonic Samples (S-I and S-II) were separately applied to scalp of each person of one group in accordance with Half-Head technique wherein the hair tonics I and II were separately applied to the right half of the scalp and the left half thereof, on the other hand Samples (S-II and S-III) were likewise separately applied to each person of the other group in the same manner twice a day (in the morning and at night) for 3 months.

guinea pig [6] = details: in vivo
[7] = Acute Oral Toxicity (rat); details: in vivo
human = details: in vivo
guinea pig [8] = assay: Phototoxicity (guinea pig); format: in vivo
rabbit = details: in vivo
guinea pig [9] = assay: Skin Sensitization (guinea pig); format: in vivo
[10] = in vivo
guinea pig [11] = assay: Photosensitization (guinea pig); format: in vivo
scalp [12] = details: in vivo
Text: (§1) Twenty statistically equivalent persons (comprising men and women aged 30 to 60 years) were selected and Samples of the hair tonics were applied to their scalps in accordance with the Half-Head technique, in which Samples were separately applied to the right and left half portions of the scalp, twice a day (in the morning and at night) for three months. The effects of preventing graying of the hair and restoring grayed hair to its natural color were estimated by comparing the conditions of the portions observed before and after the application of Samples.

scalp [13] = assay: Condition of the scalp during and after use for 3 months
Text: as §1

[14] = Table XXV, hair tonic with 0.1% vs tonic without
[15] = Table III, of 20 persons, hair tonic with 0.05% vs tonic without, twice a day
[16] = Table X, hair cream with 0.8% vs cream without
[17] = Table VIII, milky lotion with 0.2% vs lotion without

## Cc1cc2nc3c(=O)[nH]c(=O)nc-3n(C[C@H](O)[C@H](O)[C@H](O)COP(=O)(O)OP(=O)(O)OC[C@H]3O[C@@H](n4cnc5c(N)ncnc54)[C@H](O)[C@@H]3O)c2cc1C [FAD-2Na]
Grayed hair [1]; [14]
  Comp. Sample is better: 0
  Comp. Sample is somewhat better: 0
  Same: 4
  This Invention is better: 8
  This Invention is somewhat better: 8
[2]
  safety: had no problems such as skin irritation and thus had extremely high safety

## C=C1CC[C@H](O)C/C1=C/C=C1\CCC[C@]2(C)[C@@H]([C@H](C)CCCC(C)C)CC[C@@H]12 [vitamin D3]
[3]
  side-effects: tend to cause side-effectssuch as hypervitaminosis D or hypercalcemia
[4]
  stability in the air: extremely unstable in the air and easily undergo oxidation

## CCCCCC(=O)Nc1ncnc2c1ncn2C1OC2COP(=O)([O-])OC2C1O.[Na+] (stereo not drawn) [N^6-MHcAMP-Na]
Grayed hair [1]
  effect on graying, compared with Example 12: substantially the same effect as in Example 12

## CCCCCCCCCCCOCC(COCCCCCCCCCCC)OCCCCCCCCCCC [triundecyl glycerylether]
Grayed hair [5]
  effect on graying, compared with Example 7: approximately the same results as in Example 7

## Nc1ncnc2c1nc(S)n2[C@@H]1O[C@@H]2COP(=O)(O)O[C@H]2[C@H]1O [8-SHcAMP-Na]
Grayed hair [1]
  effect of preventing graying and restoring grayed hair, compared with Example 2: Substantially the same excellent effect as in Example 2

## Nc1ncnc2c1nc(Br)n2[C@@H]1O[C@@H]2COP(=O)(O)O[C@H]2[C@H]1O [8-BrcAMP-Na]
Grayed hair [1]
  effect of preventing graying and restoring grayed hair, compared with Example 2: Substantially the same excellent effect as in Example 2

## CCCC(=O)Nc1ncnc2c1ncn2[C@@H]1O[C@@H]2COP(=O)(O)O[C@H]2[C@H]1OC(=O)CCC [N^6,O^2'-DBcAMP-Na]
Grayed hair [1]; [15]
  Comp. Sample is better: 0
  Comp. Sample is somewhat better: 0
  Same: 2
  This Invention is better: 11
  This Invention is somewhat better: 7
Grayed hair [1]
  amount of grayed hair: reduced the amount of grayed hair more effectively than the comparative hair tonic
  effect of preventing graying of the hair and restoring grayed hair to its natural color: remarkable effect
Grayed hair [1]; amount of 0.005%
  effect of preventing graying and restoring grayed hair: little effect
Grayed hair [1]; amount of 0.01
  effect of preventing graying and restoring grayed hair: effective
Guinea pig [6]
  Primary Skin Irritation: non-irritant
[7]
  LD50: ≥ 5000 mg/kg
human
  Human Patch Test: non-irritant
Guinea pig [8]
  Phototoxicity: negative
rabbit
  Ocular-mucous Membrane Irritation: non-irritant
Guinea pig [9]
  Skin Sensitization: negative
[10]
  safety: extremely high
Guinea pig [11]
  Photosensitization: negative
Scalp [12]
  abnormality in the condition of the scalp: No abnormality was observed

## Nc1ncnc2c1nc(O)n2[C@@H]1O[C@@H]2COP(=O)(O)O[C@H]2[C@H]1O [8-OHcAMP-Na]
Grayed hair [1]
  effect of preventing graying and restoring grayed hair, compared with Example 2: Substantially the same excellent effect as in Example 2

## Nc1ncnc2c1nc(Sc1ccc(Cl)cc1)n2[C@@H]1O[C@@H]2COP(=O)(O)O[C@H]2[C@H]1O [8-C1PhScAMP-Na]
Grayed hair [1]
  effect of preventing graying and restoring grayed hair, compared with Example 2: Substantially the same excellent effect as in Example 2

## CCCC(=O)Nc1ncnc2c1ncn2[C@@H]1O[C@@H]2COP(=O)(O)O[C@H]2[C@H]1O [N^6-MBcAMP-Na]
Grayed hair [1]; [16]
  Comp. Sample is better: 0
  Comp. Sample is somewhat better: 0
  Same: 4
  This Invention is better: 9
  This Invention is somewhat better: 7
Grayed hair [1]
  amount of grayed hair: the amount of grayed hair was reduced
  effect of preventing graying of the hair and restoring grayed hair to its natural color: excellent effect
Scalp [13]
  abnormality in the condition of the scalp: no abnormality was observed
[2]
  safety: had no problems such as skin irritation and thus had extremely high safety

## CCCC(=O)O[C@@H]1[C@@H]2OP(=O)(O)OC[C@H]2O[C@H]1n1cnc2c(N)ncnc21 [O^2 -MBcAMP-Na]
Grayed hair [5]
  effect on graying, compared with Example 7: approximately the same results as those in Example 7

## Cc1cc2nc3c(=O)[nH]c(=O)nc-3n(C[C@H](O)[C@H](O)[C@H](O)COP(=O)(O)OP(=O)(O)OC[C@H]3O[C@@H](n4cnc5c(N)ncnc54)[C@H](O)[C@@H]3O)c2cc1C [FAD, flavin adenine dinucleotide]
Grayed hair [5]
  effect on graying, compared with Example 7: approximately the same results as those in Example 7

## CCCC(=O)O[C@@H]1[C@@H]2OP(=O)(O)OC[C@H]2O[C@H]1n1c(Br)nc2c(N)ncnc21 [O^2'-MB-8BrcAMP-Na]
Grayed hair [1]
  effect of preventing graying and restoring grayed hair, compared with Example 2: Substantially the same excellent effect as in Example 2

## CCCCCCCCC(=O)O [nonanoic acid]
Grayed hair [5]
  effect on graying, compared with Example 7: approximately the same results as in Example 7

## CCCCCCCC(=O)OC1C2OP(=O)([O-])OCC2OC1n1cnc2c(N)ncnc21.[Na+] (stereo not drawn) [O^2'-MOcAMP-Na]
Grayed hair [1]
  effect on graying, compared with Example 12: substantially the same effect as in Example 12

## Nc1ncnc2c1ncn2[C@@H]1O[C@@H]2COP(=O)([O-])O[C@H]2[C@H]1OC(=O)CCC(=O)O.[Na+] [O^2'-MScAMP-Na]
Grayed hair [1]; [17]
  Comp. Sample is better: 0
  Comp. Sample is somewhat better: 0
  Same: 3
  This Invention is better: 10
  This Invention is somewhat better: 7
Grayed hair [1]
  amount of grayed hair: the amount of grayed hair was reduced
  effect of preventing graying of the hair and restoring grayed hair to its natural color: excellent effect
Scalp [13]
  abnormality in the condition of the scalp: no abnormality was observed
[2]
  safety: had no problems such as skin irritation and thus had extremely high safety

## Nc1ncnc2c1nc(Cl)n2[C@@H]1O[C@@H]2COP(=O)(O)O[C@H]2[C@H]1O [8-ClcAMP-Na]
Grayed hair [1]
  effect of preventing graying and restoring grayed hair, compared with Example 2: Substantially the same excellent effect as in Example 2

## CC(=O)Nc1ncnc2c1nc(N)n2C1OC2COP(=O)([O-])OC2C1OC(C)=O.[Na+] (stereo not drawn) [N^6,O^2'-DA-8-NH2 cAMP-Na]
Grayed hair [1]
  effect of preventing graying and restoring grayed hair, compared with Example 2: Substantially the same excellent effect as in Example 2
